System: NHBE cells
Experiment: Biolog metabolic array: substrate use by NHBE cells with or without CA09 infection
Type: cell-based, human
Settings: for Substrate use, 590 nm absorbance normalized to zero hour, 1 hr: Biolog PMM2, 1 hr; for Substrate use, 590 nm absorbance normalized to zero hour, 5 hr: Biolog PMM2, 5 hr; for Substrate use, 590 nm absorbance normalized to zero hour, 7 hr: Biolog PMM2, 7 hr
[1] = Control (uninfected) NHBE cells
[2] = Virus (CA09, MOI 1) infected NHBE cells
[3] = Virus (CA09-infected, MOI 1) NHBE cells
[4] = Virus (CA09-infected NHBE cells, MOI 1)
[5] = Virus: CA09-infected NHBE cells, MOI 1, Biolog PMM2

CC(=O)N[C@@H]1C(O)O[C@H](CO)[C@@H](O)[C@@H]1O (stereo partly drawn) [N-Acetyl-D-Mannosamine]
590 nm absorbance normalized to zero hour (substrate use), 1 hr [1]: 0.90
590 nm absorbance normalized to zero hour (substrate use), 2 hr [1]: 0.77
590 nm absorbance normalized to zero hour (substrate use), 3 hr [1]: 0.71
590 nm absorbance normalized to zero hour (substrate use), 4 hr [1]: 0.68
590 nm absorbance normalized to zero hour (substrate use), 6 hr [1]: 0.65
590 nm absorbance normalized to zero hour (substrate use), 8 hr [1]: 0.63
590 nm absorbance normalized to zero hour (substrate use), 9 hr [1]: 0.58
590 nm absorbance normalized to zero hour (substrate use), 10 hr [1]: 0.67
590 nm absorbance normalized to zero hour (substrate use), 11 hr [1]: 0.66
Substrate use, 590 nm absorbance normalized to zero hour, 1 hr [1]: 0.90
Substrate use, 590 nm absorbance normalized to zero hour, 5 hr [1]: 0.68
Substrate use, 590 nm absorbance normalized to zero hour, 7 hr [1]: 0.61
Substrate use, 590 nm absorbance normalized to zero hour, 1 hr [2]: 1.40
Substrate use, 590 nm absorbance normalized to zero hour, 5 hr [2]: 2.60
Substrate use, 590 nm absorbance normalized to zero hour, 7 hr [2]: 2.89
590 nm absorbance normalized to zero hour (substrate use), 1 hr [3]: 1.40
590 nm absorbance normalized to zero hour (substrate use), 2 hr [3]: 1.88
590 nm absorbance normalized to zero hour (substrate use), 3 hr [3]: 2.13
590 nm absorbance normalized to zero hour (substrate use), 4 hr [3]: 2.22
590 nm absorbance normalized to zero hour (substrate use), 6 hr [3]: 2.70
590 nm absorbance normalized to zero hour (substrate use), 8 hr [3]: 3.09
590 nm absorbance normalized to zero hour (substrate use), 9 hr [3]: 3.29
590 nm absorbance normalized to zero hour (substrate use), 10 hr [3]: 3.34
590 nm absorbance normalized to zero hour (substrate use), 11 hr [3]: 3.55

OC[C@H]1O[C@H](OC[C@H]2OC(O)(CO)[C@@H](O)[C@@H]2O)[C@H](O)[C@@H](O)[C@@H]1O (stereo partly shown) [Palatinose]
590 nm absorbance normalized to zero hour (substrate use), 0 hr [1]: 1.00
590 nm absorbance normalized to zero hour (substrate use), 1 hr [1]: 1.31
590 nm absorbance normalized to zero hour (substrate use), 2 hr [1]: 1.79
590 nm absorbance normalized to zero hour (substrate use), 3 hr [1]: 1.68
590 nm absorbance normalized to zero hour (substrate use), 4 hr [1]: 1.81
590 nm absorbance normalized to zero hour (substrate use), 6 hr [1]: 2.44
590 nm absorbance normalized to zero hour (substrate use), 8 hr [1]: 2.16
590 nm absorbance normalized to zero hour (substrate use), 9 hr [1]: 2.14
590 nm absorbance normalized to zero hour (substrate use), 10 hr [1]: 1.94
590 nm absorbance normalized to zero hour (substrate use), 11 hr [1]: 1.44
Substrate use, 590 nm absorbance normalized to zero hour, 0 hr (Control (uninfected) NHBE cells, Biolog PMM2, 0 hr): 1.00
Substrate use, 590 nm absorbance normalized to zero hour, 1 hr [1]: 1.31
Substrate use, 590 nm absorbance normalized to zero hour, 5 hr [1]: 2.10
Substrate use, 590 nm absorbance normalized to zero hour, 7 hr [1]: 2.18
590 nm absorbance normalized to zero hour (substrate use), 0 hr [4]: 1.00
590 nm absorbance normalized to zero hour (substrate use), 1 hr [4]: 0.18
590 nm absorbance normalized to zero hour (substrate use), 2 hr [4]: 0.24
590 nm absorbance normalized to zero hour (substrate use), 3 hr [4]: 0.28
590 nm absorbance normalized to zero hour (substrate use), 4 hr [4]: 0.29
590 nm absorbance normalized to zero hour (substrate use), 5 hr [4]: 0.34
590 nm absorbance normalized to zero hour (substrate use), 6 hr [4]: 0.36
590 nm absorbance normalized to zero hour (substrate use), 7 hr [4]: 0.38
590 nm absorbance normalized to zero hour (substrate use), 8 hr [4]: 0.41
590 nm absorbance normalized to zero hour (substrate use), 9 hr [4]: 0.45
590 nm absorbance normalized to zero hour (substrate use), 10 hr [4]: 0.46
590 nm absorbance normalized to zero hour (substrate use), 11 hr [4]: 0.50
590 nm absorbance normalized to zero hour (substrate use), 0 hr [5]: 1.00
590 nm absorbance normalized to zero hour (substrate use), 1 hr [5]: 0.18
590 nm absorbance normalized to zero hour (substrate use), 2 hr [5]: 0.24
590 nm absorbance normalized to zero hour (substrate use), 3 hr [5]: 0.28
590 nm absorbance normalized to zero hour (substrate use), 4 hr [5]: 0.29
590 nm absorbance normalized to zero hour (substrate use), 5 hr [5]: 0.34
590 nm absorbance normalized to zero hour (substrate use), 6 hr [5]: 0.36
590 nm absorbance normalized to zero hour (substrate use), 7 hr [5]: 0.38
590 nm absorbance normalized to zero hour (substrate use), 8 hr [5]: 0.41
590 nm absorbance normalized to zero hour (substrate use), 9 hr [5]: 0.45
590 nm absorbance normalized to zero hour (substrate use), 10 hr [5]: 0.46
590 nm absorbance normalized to zero hour (substrate use), 11 hr [5]: 0.50

CCC(=O)O [Propionic Acid]
590 nm absorbance normalized to zero hour (substrate use), 1 hr [1]: 1.39
590 nm absorbance normalized to zero hour (substrate use), 2 hr [1]: 1.55
590 nm absorbance normalized to zero hour (substrate use), 3 hr [1]: 1.71
590 nm absorbance normalized to zero hour (substrate use), 4 hr [1]: 1.74
590 nm absorbance normalized to zero hour (substrate use), 6 hr [1]: 0.17
590 nm absorbance normalized to zero hour (substrate use), 8 hr [1]: 1.84
590 nm absorbance normalized to zero hour (substrate use), 9 hr [1]: 1.99
590 nm absorbance normalized to zero hour (substrate use), 10 hr [1]: 1.15
590 nm absorbance normalized to zero hour (substrate use), 11 hr [1]: 1.23
Substrate use, 590 nm absorbance normalized to zero hour, 1 hr [1]: 1.39
Substrate use, 590 nm absorbance normalized to zero hour, 5 hr [1]: 1.91
Substrate use, 590 nm absorbance normalized to zero hour, 7 hr [1]: 1.75
590 nm absorbance normalized to zero hour (substrate use), 1 hr [3]: 1.23
590 nm absorbance normalized to zero hour (substrate use), 2 hr [3]: 0.70
590 nm absorbance normalized to zero hour (substrate use), 3 hr [3]: 0.83
590 nm absorbance normalized to zero hour (substrate use), 4 hr [3]: 0.93
590 nm absorbance normalized to zero hour (substrate use), 5 hr [3]: 1.08
590 nm absorbance normalized to zero hour (substrate use), 6 hr [3]: 1.15
590 nm absorbance normalized to zero hour (substrate use), 7 hr [3]: 1.17
590 nm absorbance normalized to zero hour (substrate use), 8 hr [3]: 1.18
590 nm absorbance normalized to zero hour (substrate use), 9 hr [3]: 1.32
590 nm absorbance normalized to zero hour (substrate use), 10 hr [3]: 1.11
590 nm absorbance normalized to zero hour (substrate use), 11 hr [3]: 1.26
590 nm absorbance normalized to zero hour (substrate use), 1 hr [5]: 1.23
590 nm absorbance normalized to zero hour (substrate use), 2 hr [5]: 0.70
590 nm absorbance normalized to zero hour (substrate use), 3 hr [5]: 0.83
590 nm absorbance normalized to zero hour (substrate use), 4 hr [5]: 0.93
590 nm absorbance normalized to zero hour (substrate use), 5 hr [5]: 1.08
590 nm absorbance normalized to zero hour (substrate use), 6 hr [5]: 1.15
590 nm absorbance normalized to zero hour (substrate use), 7 hr [5]: 1.17
590 nm absorbance normalized to zero hour (substrate use), 8 hr [5]: 1.18
590 nm absorbance normalized to zero hour (substrate use), 9 hr [5]: 1.32
590 nm absorbance normalized to zero hour (substrate use), 10 hr [5]: 1.11
590 nm absorbance normalized to zero hour (substrate use), 11 hr [5]: 1.26

CC(=O)C(=O)O [Pyruvic Acid]
590 nm absorbance normalized to zero hour (substrate use), 1 hr [1]: 1.34
590 nm absorbance normalized to zero hour (substrate use), 2 hr [1]: 1.40
590 nm absorbance normalized to zero hour (substrate use), 3 hr [1]: 1.54
590 nm absorbance normalized to zero hour (substrate use), 4 hr [1]: 1.61
590 nm absorbance normalized to zero hour (substrate use), 6 hr [1]: 1.39
590 nm absorbance normalized to zero hour (substrate use), 8 hr [1]: 1.57
590 nm absorbance normalized to zero hour (substrate use), 9 hr [1]: 1.71
590 nm absorbance normalized to zero hour (substrate use), 10 hr [1]: 1.81
590 nm absorbance normalized to zero hour (substrate use), 11 hr [1]: 2.49
Substrate use, 590 nm absorbance normalized to zero hour, 1 hr [1]: 1.34
Substrate use, 590 nm absorbance normalized to zero hour, 5 hr [1]: 1.70
Substrate use, 590 nm absorbance normalized to zero hour, 7 hr [1]: 1.52
590 nm absorbance normalized to zero hour (substrate use), 1 hr [3]: 1.27
590 nm absorbance normalized to zero hour (substrate use), 2 hr [3]: 0.82
590 nm absorbance normalized to zero hour (substrate use), 3 hr [3]: 0.94
590 nm absorbance normalized to zero hour (substrate use), 4 hr [3]: 1.20
590 nm absorbance normalized to zero hour (substrate use), 5 hr [3]: 1.10
590 nm absorbance normalized to zero hour (substrate use), 6 hr [3]: 1.09
590 nm absorbance normalized to zero hour (substrate use), 7 hr [3]: 1.06
590 nm absorbance normalized to zero hour (substrate use), 8 hr [3]: 0.67
590 nm absorbance normalized to zero hour (substrate use), 9 hr [3]: 0.65
590 nm absorbance normalized to zero hour (substrate use), 10 hr [3]: 0.75
590 nm absorbance normalized to zero hour (substrate use), 11 hr [3]: 0.61
590 nm absorbance normalized to zero hour (substrate use), 1 hr [5]: 1.27
590 nm absorbance normalized to zero hour (substrate use), 2 hr [5]: 0.82
590 nm absorbance normalized to zero hour (substrate use), 3 hr [5]: 0.94
590 nm absorbance normalized to zero hour (substrate use), 4 hr [5]: 1.20
590 nm absorbance normalized to zero hour (substrate use), 5 hr [5]: 1.10
590 nm absorbance normalized to zero hour (substrate use), 6 hr [5]: 1.09
590 nm absorbance normalized to zero hour (substrate use), 7 hr [5]: 1.06
590 nm absorbance normalized to zero hour (substrate use), 8 hr [5]: 0.67
590 nm absorbance normalized to zero hour (substrate use), 9 hr [5]: 0.65
590 nm absorbance normalized to zero hour (substrate use), 10 hr [5]: 0.75
590 nm absorbance normalized to zero hour (substrate use), 11 hr [5]: 0.61
